According to patent publication US20250024871A1, “AMIDE COMPOUNDS AND THEIR USE AS FLAVOR MODIFIERS” (Firmenich Incorporated, priority 2021, published 2025):

Target: T1, T1R umami taste receptor (Homo sapiens, UniProt Q7RTX0+Q7RTX1)
T1 sequence (Q7RTX1 21-841): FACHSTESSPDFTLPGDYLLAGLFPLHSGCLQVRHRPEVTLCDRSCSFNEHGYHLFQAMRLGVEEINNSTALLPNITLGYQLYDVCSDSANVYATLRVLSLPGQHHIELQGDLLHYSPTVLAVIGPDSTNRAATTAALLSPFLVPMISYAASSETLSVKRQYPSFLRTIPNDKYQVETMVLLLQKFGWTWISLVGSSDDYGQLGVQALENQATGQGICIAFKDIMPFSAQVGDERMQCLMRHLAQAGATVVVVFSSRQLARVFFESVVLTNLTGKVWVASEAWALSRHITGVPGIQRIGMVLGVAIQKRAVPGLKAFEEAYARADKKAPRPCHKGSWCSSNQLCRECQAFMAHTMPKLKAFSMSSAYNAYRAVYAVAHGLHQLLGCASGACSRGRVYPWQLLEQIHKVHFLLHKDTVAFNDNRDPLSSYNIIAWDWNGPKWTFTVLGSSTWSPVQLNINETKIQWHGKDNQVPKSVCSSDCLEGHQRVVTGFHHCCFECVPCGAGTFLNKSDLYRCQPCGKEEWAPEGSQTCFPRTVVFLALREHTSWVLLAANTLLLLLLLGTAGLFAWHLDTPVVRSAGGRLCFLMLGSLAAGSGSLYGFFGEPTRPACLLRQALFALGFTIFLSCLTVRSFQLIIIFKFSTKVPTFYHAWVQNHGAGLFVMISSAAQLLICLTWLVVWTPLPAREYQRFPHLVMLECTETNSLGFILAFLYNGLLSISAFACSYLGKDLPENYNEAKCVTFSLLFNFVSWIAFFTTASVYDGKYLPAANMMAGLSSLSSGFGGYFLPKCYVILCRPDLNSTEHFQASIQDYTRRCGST
T1 sequence (Q7RTX0 21-852): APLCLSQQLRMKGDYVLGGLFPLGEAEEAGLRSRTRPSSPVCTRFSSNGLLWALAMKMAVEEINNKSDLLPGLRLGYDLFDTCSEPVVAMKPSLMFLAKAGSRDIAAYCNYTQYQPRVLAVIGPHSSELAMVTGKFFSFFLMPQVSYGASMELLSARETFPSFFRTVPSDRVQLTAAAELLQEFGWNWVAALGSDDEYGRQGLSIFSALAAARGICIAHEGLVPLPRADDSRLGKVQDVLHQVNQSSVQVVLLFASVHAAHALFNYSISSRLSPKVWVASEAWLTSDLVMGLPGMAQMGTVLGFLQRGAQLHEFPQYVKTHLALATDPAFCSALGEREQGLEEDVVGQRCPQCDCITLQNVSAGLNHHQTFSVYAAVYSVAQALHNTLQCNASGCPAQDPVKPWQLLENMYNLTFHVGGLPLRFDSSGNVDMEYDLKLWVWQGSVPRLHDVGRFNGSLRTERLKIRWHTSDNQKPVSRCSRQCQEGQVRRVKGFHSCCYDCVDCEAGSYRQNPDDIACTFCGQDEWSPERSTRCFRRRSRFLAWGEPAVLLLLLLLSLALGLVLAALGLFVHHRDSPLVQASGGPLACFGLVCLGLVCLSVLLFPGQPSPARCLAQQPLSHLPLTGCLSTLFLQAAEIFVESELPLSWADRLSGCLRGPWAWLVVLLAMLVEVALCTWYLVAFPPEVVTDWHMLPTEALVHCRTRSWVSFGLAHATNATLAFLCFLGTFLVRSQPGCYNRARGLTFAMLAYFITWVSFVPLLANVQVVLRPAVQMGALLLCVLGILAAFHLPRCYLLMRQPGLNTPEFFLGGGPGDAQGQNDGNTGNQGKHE
Experiment: in vitro cell-based assay having cells that express the T1R umami taste receptor (enhancement of MSG)
Conditions: for EC50: cells expressing T1R umami taste receptor, read-out: EC50 for enhancement of MSG binding
Procedure: Each of Compounds 101-183 was synthesized according to one of the general procedures set forth above in Examples 1. Thereafter, the compounds were tested in an in vitro cell-based assay having cells that express the T1R umami taste receptor. Dose-binding curves were recorded and the EC50 was determined for enhancement of MSG binding. Table 2 sets forth the calculated EC50 values for certain tested compounds as well as the MSG enhancement ratio at a particular concentration.

Row | EC50 [µM] | MSG Enh. Ratio (compound at 50 μM) | SMILES | further results
1 | 2.24 | – | CCOC(=O)[C@@H](NC(=O)/C=C/c1ccc(OC)cc1)C(C)C [Compound 147, Ethyl (E)-(3-(4-methoxyphenyl)acryloyl)-L-valinate] | MSG Enh. Ratio (compound at 0.3 μM): 3.0 @
2 | 0.1 | – | CCOC(=O)[C@@H](CC(C)C)NC(=O)c1ccc(C)c(C)c1 [Compound 115, Ethyl (3,4-dimethylbenzoyl)-D-leucinate] | –
3 | 12 | – | CCOC(=O)[C@H](Cc1ccccc1)NC(=O)c1ccc(C)c(C)c1 [Compound 120, Ethyl (3,4-dimethylbenzoyl)-L-phenylalaninate] | MSG Enh. Ratio (compound at 10 μM): 4.6 @
4 | > 50 | 3.1 @ | COC(=O)CC[C@H](NC(=O)/C=C/C(C)C)C(=O)OC [Compound 173, Dimethyl (E)-(4-methylpent-2-enoyl)-L-glutamate] | –
5 | > 50 | 2.8 @ | COC(=O)[C@H](Cc1ccccc1)NC(=O)c1ccccn1 [Compound 112, Methyl picolinoyl-L-phenylalaninate] | –
6 | – | – | CCOC(=O)[C@H](CC(C)C)NC(=O)c1ccc(C)c(C)c1 [Compound 116, Ethyl (3,4-dimethylbenzoyl)-L-leucinate] | MSG Enh. Ratio (compound at 3 μM): 3.7 @
7 | – | 5.6 @ | CCOC(=O)CC[C@H](NC(=O)c1ccc(C)c(C)n1)C(=O)OCC [Compound 131, Diethyl (5,6-dimethylpicolinoyl)-L-glutamate] | –
8 | 36 | 6.5 @ | COC(=O)[C@H](Cc1ccccc1)NC(=O)c1ccc(OC)cc1 [Compound 105, Methyl (4-methoxybenzoyl)-L-phenylalaninate] | –
9 | > 50 | 2.5 @ | COC(=O)[C@H](Cc1ccccc1)NC(=O)c1ccc(OC)c(OC)c1 [Compound 123, Methyl (3,4-dimethoxybenzoyl)-L-phenylalaninate] | –
10 | 36 | 3.6 @ | CCOC(=O)[C@@H](NC(=O)c1ccc(OC)cc1)C(C)C [Compound 106, Ethyl (4-methoxybenzoyl)-L-valinate] | –
11 | 0.7 | – | CCOc1ccc(C(=O)N[C@H](CC(C)C)C(=O)OC)cc1 [Compound 109, Methyl (4-ethoxybenzoyl)-D-leucinate] | –
12 | – | – | CCOC(=O)[C@H](CCSC)NC(=O)/C=C/C(C)C [Compound 170, Ethyl (E)-(4-methylpent-2-enoyl)-L-methioninate] | MSG Enh. Ratio (compound at 10 μM): 3.5 @
